We go through 2 compounds from patent publication US20070088080A1, “Gsk-3 inhibitors isolated from marine organisms” (NEUROPHARMA, S.A., priority 2003, published 2007).

Experiment [1] relates to Tau phosphorylation [pS396] in human neuroblastoma SHSY5Y cells. In words: Inhibition of tau phosphorylation in SHSY5Y cells, Tau [pS396] sandwich ELISA. It counts as cell-based. To be noted: at 200 μM, 24 h. As to the method:
1.1.2. Inhibition of Tau Phosphorylation Human neuroblastoma SHSY5Y cells were seeded in 96-well plates (25000 cells/well) in Dulbecco's modified Eagle's medium (DMEM) supplemented with 10% fetal calf serum. One day later, cells were treated with samples for 24 h at 37° C. After treatment, cultures were washed with phosphate-buffered saline and lysed for 30 min at 4° C. in 120 μl of extraction buffer (10 mM Tris-HCl, pH 7.4, 100 mM NaCl, 1 mM EDTA, 2 mM Na3VO4, 1% Triton X-100, 10% glycerol, 0.1% SDS, 0.5% Sodium deo.ycholate, 1 mM PMSF and a protease inhibitor cocktail.
The quantitative definition of phosphorylated human Tau was made taking 40 μl of the cell lysate and using a phosphorylation-specific antibody against Tau [pS396] in a sandwich ELISA. Tau phosphorylation was estimated by measuring of absorbance at 450 nm in a microtiter plate reader.

In experiment [2] the target is Recombinant human glycogen synthase kinase 3β (Homo sapiens, UniProt P49841). In words: GSK3β inhibition, radiometric kinase assay with GS-2 peptide and 33P-ATP.
Chain of Recombinant human glycogen synthase kinase 3β (P49841 whole entry): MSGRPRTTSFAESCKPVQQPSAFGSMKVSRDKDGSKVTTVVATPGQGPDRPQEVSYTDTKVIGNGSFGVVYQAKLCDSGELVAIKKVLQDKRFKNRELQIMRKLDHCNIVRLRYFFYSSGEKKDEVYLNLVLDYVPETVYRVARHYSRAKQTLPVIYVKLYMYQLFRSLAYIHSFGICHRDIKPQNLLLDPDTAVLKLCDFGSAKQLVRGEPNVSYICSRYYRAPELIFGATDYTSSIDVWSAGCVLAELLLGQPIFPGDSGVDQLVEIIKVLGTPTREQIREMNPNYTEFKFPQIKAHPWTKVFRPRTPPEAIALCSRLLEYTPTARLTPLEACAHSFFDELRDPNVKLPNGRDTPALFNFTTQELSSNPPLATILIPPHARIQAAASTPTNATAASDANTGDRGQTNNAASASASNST
Procedure: Recombinant human glycogen synthase kinase 3B was assayed in MOPS 8 mM pH7.3, EDTA 0.2 mM, MgCl. 10 mM and sodium orthovanadate 0.25 mM in the presence of 62.5 μM of Phospho-Glycogen Synthase Peptide-2 (GS-2), 0.5 μCi γ-^33P-ATP and unlabelled ATP at a final concentration of 12.5 μM. The final assay volume was 20 μl. After incubation for 30 minutes at 30° C., 15 μl aliquots were spotted onto P81 phosphocellulose papers. Filters were washed four times for at least 10 minutes each and counted with 1.5 ml of scintillation cocktail in a scintillation counter.

One may read the IC50 as the concentration that gives 50% inhibition. Turning to `CC1=C(O)[C@@H](C/C(C)=C/CC[C@H](C)/C=C/C=C(\C)CCCc2ccoc2)OC1=O` [Palinurin], the “inhibition of tau phosphorylation, cellular assay” value in experiment [1] was “significant inhibition”. The IC50 in experiment [2] came to 4.5 µM. In experiment [2] (kinetic experiments varying both ATP and inhibitor concentrations, preliminary), the “mechanism of inhibition of GSK3β” value is “non As-competitive inhibitor”.
Take `C/C(=C\C=C\C(C)CC/C=C(\C)CC1OC(=O)C(=O)C1=O)CCCc1ccoc1` (stereo not shown) [Tricantin]: in experiment [1], the “inhibition of tau phosphorylation, cellular assay” value was “significant inhibition”.
